Values quoted from earlier work as cited in patent publication US6465462B1, “Substituted triazolo pyridazine derivatives as inverse agonists of the GABAAα5 receptor subtype” (Merck Sharp & Dohme Ltd., priority 1996, dated 2002).

What was measured:
[1] = in vivo
[2] = reported by McNamara and Skelton, Psychobiology 21:101-108

## COC(=O)c1cc2c(cn1)[nH]c1ccccc12 [β-CCM]
[1]
  proconvulsant effect: proconvulsant
[2]
  spatial learning in the Morris watermaze: enhanced spatial learning
